Laboratory results reported in patent US7517884B2 (Kalypsys Inc., priority 1998, dated 2009).
pEC50: −log10 of the molar value.

Assays:
Format in all cases: cell-based, murine and human
Details in all cases: GAL4-PPAR LBD chimera
[1] = target: T1, PPAR-alpha (UniProt Q07869); experiment: PPAR-alpha transactivation assay (GAL4 chimera, luciferase reporter) in CV-1 cells
T1 sequence (Q07869 1-468): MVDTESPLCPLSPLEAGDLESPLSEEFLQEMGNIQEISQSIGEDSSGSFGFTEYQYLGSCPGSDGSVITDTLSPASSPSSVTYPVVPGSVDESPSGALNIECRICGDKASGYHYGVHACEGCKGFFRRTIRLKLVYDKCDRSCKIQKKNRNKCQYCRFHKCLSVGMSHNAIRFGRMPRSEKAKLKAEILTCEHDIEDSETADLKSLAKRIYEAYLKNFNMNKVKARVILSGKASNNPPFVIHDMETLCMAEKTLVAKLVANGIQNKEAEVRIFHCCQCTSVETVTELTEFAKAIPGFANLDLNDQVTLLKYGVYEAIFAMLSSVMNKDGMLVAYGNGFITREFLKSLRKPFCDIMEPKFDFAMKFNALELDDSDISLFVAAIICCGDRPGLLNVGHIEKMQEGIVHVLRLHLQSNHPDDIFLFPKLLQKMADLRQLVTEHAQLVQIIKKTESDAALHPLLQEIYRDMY
Summary of the method: (§1)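 CV-1 cells transiently transfected with murine or human PPAR-alpha, -gamma or -delta ligand-binding domain fused to GAL4 DNA-binding domain plus a GAL4-site luciferase reporter. After replating in phenol-red-free DME with 5% delipidated calf serum, cells were exposed to compound 20-24 h; luciferase read-out gave EC50.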

[2] = target: T2, PPAR-gamma (UniProt P37231); experiment: PPAR-gamma transactivation assay (GAL4 chimera, luciferase reporter) in CV-1 cells
T2 sequence (P37231 1-505): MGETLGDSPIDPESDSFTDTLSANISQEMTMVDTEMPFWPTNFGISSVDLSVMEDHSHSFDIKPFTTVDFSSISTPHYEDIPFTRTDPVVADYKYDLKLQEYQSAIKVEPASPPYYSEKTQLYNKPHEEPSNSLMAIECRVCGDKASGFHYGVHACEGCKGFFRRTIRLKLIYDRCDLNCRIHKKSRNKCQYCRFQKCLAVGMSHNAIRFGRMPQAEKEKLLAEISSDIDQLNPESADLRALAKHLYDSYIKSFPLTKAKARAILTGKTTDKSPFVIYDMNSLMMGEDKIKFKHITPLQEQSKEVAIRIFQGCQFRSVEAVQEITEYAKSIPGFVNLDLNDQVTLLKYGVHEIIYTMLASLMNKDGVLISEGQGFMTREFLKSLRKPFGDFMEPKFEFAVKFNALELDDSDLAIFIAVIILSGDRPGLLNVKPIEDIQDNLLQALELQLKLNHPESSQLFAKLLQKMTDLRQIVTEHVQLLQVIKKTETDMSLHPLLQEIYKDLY
Summary of the method: as §1

[3] = target: T3, PPAR-delta (UniProt Q03181); experiment: PPAR-delta transactivation assay (GAL4 chimera, luciferase reporter) in CV-1 cells
T3 sequence (Q03181 1-441): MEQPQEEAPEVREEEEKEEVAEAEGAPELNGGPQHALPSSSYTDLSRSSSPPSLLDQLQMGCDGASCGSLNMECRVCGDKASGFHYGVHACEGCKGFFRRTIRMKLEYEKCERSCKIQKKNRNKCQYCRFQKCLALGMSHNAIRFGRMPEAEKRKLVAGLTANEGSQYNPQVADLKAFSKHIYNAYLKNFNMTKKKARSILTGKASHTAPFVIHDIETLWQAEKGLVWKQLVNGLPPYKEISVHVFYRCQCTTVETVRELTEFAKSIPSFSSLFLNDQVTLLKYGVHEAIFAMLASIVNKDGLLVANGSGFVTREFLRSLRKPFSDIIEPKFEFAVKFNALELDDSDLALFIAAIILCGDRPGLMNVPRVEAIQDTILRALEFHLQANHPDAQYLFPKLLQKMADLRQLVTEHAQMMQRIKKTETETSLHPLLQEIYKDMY
Summary of the method: as §1

SMILES | pEC50 [1] | pEC50 [2] | pEC50 [3]
O=C(O)CC1Cc2ccc(S(=O)(=O)N3CCN(c4ccc(C(F)(F)F)cc4)CC3)cc2C1 (stereo not drawn) [Example 1, {5-[4-(4-trifluoromethylphenyl)-piperazine-1-sulfonyl]-indan-2-yl}-acetic acid] | 4.00 to 5.30 | 4.00 to 5.30 | 4.00 to 5.30
CCC1CN(c2ccc(Cl)c(Cl)c2)CCN1S(=O)(=O)c1ccc2c(c1)C(C(=O)O)CC2 (stereo not drawn) [Example 58, 6-[4-(3,4-Dichloro-phenyl)-2-ethyl-piperazine-1-sulfonyl]-indan-1-carboxylic acid] | > 5.30 | 4.00 to 5.30 | > 5.30
C[C@H]1CN(c2ccc(OC(F)(F)F)cc2)CCN1S(=O)(=O)c1ccc2c(c1)C(C(=O)O)CC2 (stereo partly drawn) [Example 62, 6-[2-(S)-Methyl-4-(4-trifluoromethoxy-phenyl)-piperazine-1-sulfonyl]-indan-1-carboxylic acid] | > 5.30 | 4.00 to 5.30 | > 5.30
C[C@H]1CN(c2ccc(C(F)(F)F)c(F)c2)CCN1S(=O)(=O)c1ccc2c(c1)C(C(=O)O)CC2 (stereo partly drawn) [Example 63, 6-[4-(3-Fluoro-4-trifluoromethyl-phenyl)-2-(S)-methyl-piperazine-1-sulfonyl]-indan-1-carboxylic acid] | > 5.30 | > 5.30 | > 5.30
C[C@@H]1CN(c2ccc(C(F)(F)F)cn2)C[C@H](C)N1S(=O)(=O)c1ccc2c(c1)C(C)(C(=O)O)CC2 (stereo partly drawn) [Example 28, 6-[cis-2,6-dimethyl-4-(5-trifluoromethyl-pyridin-2-yl)-piperazine-1-sulfonyl]-1-methyl-indan-1-carboxylic acid] | < 4.00 | 4.00 to 5.30 | > 5.30
O=C(O)C1Cc2cccc(S(=O)(=O)N3CC=C(c4ccc(C(F)(F)F)cc4)CC3)c2C1 (stereo not drawn) [Example 18, 4-[4-(4-trifluoromethyl-phenyl)-3,6-dihydro-2H-pyridine-1-sulfonyl]-indan-2-carboxylic acid] | 4.00 to 5.30 | 4.00 to 5.30 | > 5.30
O=C(O)C1CCc2ccc(S(=O)(=O)N3C4CCC3CN(c3ccc(C(F)(F)F)cn3)C4)cc21 (stereo not drawn) [Example 78] | 4.00 to 5.30 | 4.00 to 5.30 | > 5.30
O=C(O)C1Cc2cccc(S(=O)(=O)N3CCN(c4ccc(Cl)c(Cl)c4)CC3)c2C1 (stereo not drawn) [Example 8, 4-[4-(3,4-dichlorophenyl)-piperazine-1-sulfonyl]-indan-2-carboxylic acid] | 4.00 to 5.30 | > 5.30 | > 5.30
O=C(O)C1CCc2ccc(S(=O)(=O)N3CC=C(c4ccc(C(F)(F)F)cc4)CC3)cc21 (stereo not drawn) [Example 22, 6-[4-(4-trifluoromethyl-phenyl)-3,6-dihydro-2H-pyridine-1-sulfonyl]-indan-1-carboxylic acid] | > 5.30 | 4.00 to 5.30 | > 5.30
O=C(O)C1CCc2ccc(S(=O)(=O)N3CCN(c4ccc5c(c4)OCO5)CC3)cc21 (stereo not drawn) [Example 21, 6-(4-Benzo[1,3]dioxol-5-yl-piperazine-1-sulfonyl)-indan-1-carboxylic acid] | 4.00 to 5.30 | 4.00 to 5.30 | 4.00 to 5.30
O=C(O)Cn1ccc2ccc(S(=O)(=O)N3CCN(c4ccc(C(F)(F)F)cc4)CC3)cc21 [Example 34, {6-[4-(4-Trifluoromethyl-phenyl)-piperazine-1-sulfonyl]-indol-1-yl}-acetic acid] | < 4.00 | 4.00 to 5.30 | > 5.30
C[C@H]1CN(c2ccc(Cl)c(Cl)c2)CCN1S(=O)(=O)c1ccc2c(c1)C(C(=O)O)CC2 (stereo partly drawn) [Example 61, 6-[4-(3,4-Dichloro-phenyl)-(S)-methyl-piperazine-1-sulfonyl]-indan-1-carboxylic acid] | > 5.30 | > 5.30 | > 5.30
C[C@@H]1CN(S(=O)(=O)c2ccc3c(c2)C(C(=O)O)CC3)CCN1c1ccc(C(F)(F)F)cn1 (stereo partly drawn) [Example 25, 6-[3-(R)-methyl-4-(5-trifluoromethyl-pyridin-2-yl)-piperazine-1-sulfonyl]-indan-1-carboxylic acid] | > 5.30 | > 5.30 | > 5.30
